# From patent US9113629B2, “4-amino-6-(4-substituted-phenyl)-picolinates and 6-amino-2-(4-substituted-phenyl)-pyrimidine-4-carboxylates and their use as herbicides” (DOW AGROSCIENCES LLC, priority 2013, dated 2015)
# Read-outs that look alike come from different tables or passages of the source.
# Experiments:
# Type in all cases: in vivo
# [1] = test system: SETFA: giant foxtail (Setaria faberi); test: Post-emergent Test I herbicidal activity; details: post-emergence, 336 h, 4.04 kg ai/ha, read-out: Visual Growth Reduction (%) 14 Days After Application, SETFA
# Protocol: (§1) Post-emergent Test I Seeds test species were obtained from commercial suppliers and planted into a 13 cm diameter-round pot containing soil-less media mix (metro-mix 360®, Sun Gro Horticulture). Postemergence treatments were planted 8-12 days prior to application and cultured in a greenhouse equipped with supplemental light sources to provide a 16 h photoperiod at 24-29° C. All pots were surface irrigated.
# (§2) A weighted amount, determined by the highest rate to be tested, of each compound was dissolved in 1.3 mL acetone-DMSO (97:3, v/v) and diluted with 4.1 mL water-isopropanol-crop oil concentrate (78:20:2, v/v/v) containing 0.02% Triton X-155 to obtain concentrated stock solutions. Additional application rates were obtained by serial dilution of the high rate solution into a solution containing appropriate volume of 97:3 v/v mixture of acetone and DMSO and appropriate volume of an aqueous mixture of water, isopropyl alcohol, crop oil concentrate (78:20:2, v/v/v) containing 0.02% Triton X-155.
# (§3) Formulated compounds were applied using a DeVilbiss® compressed air sprayer at 2-4 psi. Following treatment, pots were returned to the greenhouse for the duration of the experiment. All pots were sub-irrigated as need to provide optimum growing conditions. All pots were fertilized one time per week by subirrigating with Peters Peat-Lite Special® fertilizer (20-10-20).
# (§4) […] All evaluations were made visually on a scale of 0 to 100 where 0 represents no activity and 100 represents complete plant death. Visual assessments of plant injury were made based on growth reduction, discoloration, leaf deformity and necrosis.
# [2] = test system: IPOHE: ivyleaf morningglory (Ipomoea hederecea); test: Post-emergent Test I herbicidal activity; details: post-emergence, 336 h, 4.04 kg ai/ha, read-out: Visual Growth Reduction (%) 14 Days After Application, IPOHE
# Protocol: as §1, §2, §3, §4
# [3] = test system: HELAN: sunflower (Helianthus annuus); test: Post-emergent Test I herbicidal activity; details: post-emergence, 336 h, 4.04 kg ai/ha, read-out: Visual Growth Reduction (%) 14 Days After Application, HELAN
# Protocol: as §1, §2, §3, §4
# [4] = test system: ECHCG: barnyardgrass (Echinochloa crus-galli); test: Post-emergent Test I herbicidal activity; details: post-emergence, 336 h, 4.04 kg ai/ha, read-out: Visual Growth Reduction (%) 14 Days After Application, ECHCG
# Protocol: as §1, §2, §3, §4
# [5] = test system: AMARE: redroot pigwseed (Amaranthus retroflexus); test: Post-emergent Test I herbicidal activity; details: post-emergence, 4.04 kg ai/ha, read-out: Visual Growth Reduction (%), AMARE
# Protocol: as §1, §2, §3, §4
# [6] = test system: AVEFA: wild oats (Avena fatua); test: Post-emergent Test I herbicidal activity; details: post-emergence, 336 h, 4.04 kg ai/ha, read-out: Visual Growth Reduction (%) 14 Days After Application, AVEFA
# Protocol: as §1, §2, §3, §4
# [7] = test system: test plant species in Direct Seeded Rice; test: Postemergence herbicidal activity in direct seeded rice (Table 13); details: for pest or weed control at 35 g/ha / pest or weed control at 70 g/ha: post-emergence, 504 h; for pest or weed control at 35 g/ha: 35 g ai/ha; for pest or weed control at 70 g/ha: 70 g ai/ha
# Description: Seeds or nutlets of the desired test plant species were planted in a soil matrix prepared by mixing a loam soil (43 percent silt, 19 percent clay, and 38 percent sand, with a pH of about 8.1 and an organic matter content of about 1.5 percent) and river sand in an 80 to 20 ratio. The soil matrix was contained in plastic pots with a surface area of 139.7 cm^2. When required to ensure good germination and healthy plants, a fungicide treatment and/or other chemical or physical treatment was applied. The plants were grown for 10-17 d in a greenhouse with an approximate 14-h photoperiod which was maintained at about 29° C. during the day and 26° C. during the night. Nutrients and water were added on a regular basis and supplemental lighting was provided with overhead metal halide 1000-Watt lamps as necessary. The plants were employed for testing when they reached the second or third true leaf stage. A weighed amount, determined by the highest rate to be tested, of each test compound was placed in 25 mL glass vials and dissolved in a volume of 97:3 v/v acetone-DMSO to obtain 12× stock solutions. […] The concentrated stock solutions were added to the spray solutions so that the final acetone and DMSO concentrations were 16.2% and 0.5%, respectively. Spray solutions were diluted to the appropriate final concentrations with the addition of 10 mL of an aqueous mixture of 1.5% (v/v) Agri-dex crop oil concentrate. […] Compound requirements are based upon a 12 mL application volume at a rate of 187 L/ha. Formulated compounds were applied to the plant material with an overhead Mandel track sprayer equipped with […] nozzles calibrated to deliver 187 L/ha over an application area of 0.503 square meters (m^2) at a spray height of 18 inches (43 cm) above average plant canopy height. Control plants were sprayed in the same manner with the solvent blank. The treated plants and control plants were placed in a greenhouse as described above and watered by sub-irrigation to prevent wash-off of the test compounds. After 20-22 days, the condition of the test plants, compared with that of the untreated plants, was determined visually and scored on a scale of 0 to 100 percent where 0 corresponds to no injury and 100 corresponds to complete kill. By applying the well-accepted probit analysis as described by J. Berkson in Journal of the American Statistical Society, 48, 565 (1953) and by D. Finney in “Probit Analysis” Cambridge University Press (1952), the above data can be used to calculate GR20, GR50, GR80 and GR90 values, which are defined as growth reduction factors that correspond to the effective dose of herbicide required to kill or control 20 percent, 50 percent, 80 percent or 90 percent, respectively, of a target plant.
# [8] = BRAPP: broadleaf signalgrass, Brachiaria platyphylla, probit analysis
# [9] = CYPSS: sedge (Cyperus difformis, esculentus, iria), probit analysis
# [10] = ECHSS: barnyardgrass (Echinochloa crus-galli), junglerice (Echinochloa colonum), probit analysis
# [11] = LEFSS: sprangletop (Leptochloa chinensis, Leptochloa dubia), probit analysis
# [12] = SCPJU: Japanese bulrush, Scirpus juncoides, probit analysis
# [13] = SEBEX: hemp sesbania, Sesbania exaltata, probit analysis
# [14] = BRAPP: broadleaf signalgrass, Brachiaria platyphylla, read-out: Visual Growth Reduction (%) 21 Days After Application BRAPP
# [15] = CYPSS: sedge (Cyperus difformis, esculentus, iria), read-out: Visual Growth Reduction (%) 21 Days After Application CYPSS
# [16] = ECHSS: barnyardgrass (Echinochloa crus-galli), junglerice (Echinochloa colonum), read-out: Visual Growth Reduction (%) 21 Days After Application ECHSS
# [17] = LEFSS: sprangletop (Leptochloa chinensis, Leptochloa dubia), read-out: Visual Growth Reduction (%) 21 Days After Application LEFSS
# [18] = ORYSS: Oryza sativa, read-out: Visual Growth Reduction (%) 21 Days After Application ORYSS
# [19] = SCPJU: Japanese bulrush, Scirpus juncoides, read-out: Visual Growth Reduction (%) 21 Days After Application SCPJU
# [20] = SEBEX: hemp sesbania, Sesbania exaltata, read-out: Visual Growth Reduction (%) 21 Days After Application SEBEX
smiles,measurement,setting,value
"COC(=O)c1nc(-c2ccc(C#N)c(F)c2)c(F)c(N)c1Cl [Compound 135, methyl 4-amino-3-chloro-6-(4-cyano-3-fluorophenyl)-5-fluoropicolinate]",pest or weed control at 4040 g/ha,[1],75 to 84%
same,pest or weed control at 4040 g/ha,[2],85 to 94%
same,pest or weed control at 4040 g/ha,[3],95 to 100%
same,pest or weed control at 4040 g/ha,[4],95 to 100%
same,pest or weed control at 4040 g/ha,[5],95 to 100%
same,pest or weed control at 4040 g/ha,[6],60 to 74%
same,GR50 BRAPP,[7]; [8],4 g ai/ha
same,GR80 BRAPP,[7]; [8],11 g ai/ha
same,GR50 CYPSS,[7]; [9],5 g ai/ha
same,GR80 CYPSS,[7]; [9],49 g ai/ha
same,GR50 ECHSS,[7]; [10],17 g ai/ha
same,GR80 ECHSS,[7]; [10],70 g ai/ha
same,GR50 LEFSS,[7]; [11],57 g ai/ha
same,GR80 LEFSS,[7]; [11],114 g ai/ha
same,GR20 ORYSS,"[7]; ORYSS: Oryza sativa (crop), probit analysis",>70 g ai/ha
same,GR50 SCPJU,[7]; [12],2 g ai/ha
same,GR80 SCPJU,[7]; [12],5 g ai/ha
same,GR50 SEBEX,[7]; [13],1 g ai/ha
same,GR80 SEBEX,[7]; [13],1 g ai/ha
same,pest or weed control at 35 g/ha,[7]; [14],85 to 94%
same,pest or weed control at 70 g/ha,[7]; [14],85 to 94%
same,pest or weed control at 35 g/ha,[7]; [15],75 to 84%
same,pest or weed control at 70 g/ha,[7]; [15],85 to 94%
same,pest or weed control at 35 g/ha,[7]; [16],75 to 84%
same,pest or weed control at 70 g/ha,[7]; [16],75 to 84%
same,pest or weed control at 35 g/ha,[7]; [17],0 to 29%
same,pest or weed control at 70 g/ha,[7]; [17],60 to 74%
same,pest or weed control at 35 g/ha,[7]; [18],0 to 29%
same,pest or weed control at 70 g/ha,[7]; [18],0 to 29%
same,pest or weed control at 35 g/ha,[7]; [19],85 to 94%
same,pest or weed control at 70 g/ha,[7]; [19],95 to 100%
same,pest or weed control at 35 g/ha,[7]; [20],95 to 100%
same,pest or weed control at 70 g/ha,[7]; [20],95 to 100%
